Assays:
[1] = target: T1, human dopamine transporter (hDAT) (Homo sapiens, UniProt Q01959); experiment: Inhibition of dopamine reuptake into transfected CHO-Ki/hDAT cells; format: cell-based; conditions: 50 nM [3H]Dopamine
T1 construct: expressed in transfected cells; host or cells: CHO-Ki (so in the source)
Description: CHO-Ki/hDAT cells expressing the human dopamine transporter (hDAT) were plated before the assay. Cells (2×10^5/ml) were incubated with carnosic acid and/or vehicle in modified Tris-HEPES buffer, pH 7.1, at 25° C. for 20 minutes before addition of 50 nM [^3H]Dopamine for 10 minutes. Specific signal was determined in the presence of 10 μM nomifensine (dopamine reuptake inhibitor). Cells were then solubilised with 1% SDS lysis buffer. Reduction of [^3H]Dopamine uptake by 50 per cent or more (≧50%) relative to vehicle controls indicated significant inhibitory activity.

[2] = target: T2, Monoamine oxidase A (MAO-A) (Homo sapiens, UniProt P21397); experiment: Monoamine oxidase A inhibition (p-tyramine substrate, H2O2/vanillic acid/HRP readout); format: biochemical
T2 sequence (P21397 1-527): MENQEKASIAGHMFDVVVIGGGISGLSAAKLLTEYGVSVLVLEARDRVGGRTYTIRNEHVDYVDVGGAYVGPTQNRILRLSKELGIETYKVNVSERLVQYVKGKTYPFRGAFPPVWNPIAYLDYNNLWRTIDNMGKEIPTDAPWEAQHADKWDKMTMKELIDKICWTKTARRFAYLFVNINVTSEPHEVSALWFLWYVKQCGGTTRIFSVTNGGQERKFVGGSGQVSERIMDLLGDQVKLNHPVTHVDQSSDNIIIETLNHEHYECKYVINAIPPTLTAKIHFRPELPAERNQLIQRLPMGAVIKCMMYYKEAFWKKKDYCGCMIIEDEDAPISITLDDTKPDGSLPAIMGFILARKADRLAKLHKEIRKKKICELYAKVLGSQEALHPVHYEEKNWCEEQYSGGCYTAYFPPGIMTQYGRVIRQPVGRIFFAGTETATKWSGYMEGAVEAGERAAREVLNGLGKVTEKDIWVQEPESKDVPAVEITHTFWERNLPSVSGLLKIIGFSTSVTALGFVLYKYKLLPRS
Description: The organic amines p-tyramine or benzylamine were used as substrates for the Monoamine oxidase A (MAO-A) and B (MAO-B) enzymes respectively. The H2O2 produced by this reaction was quantified by reaction with vanillic acid, catalysed by horse radish peroxidase (HRP).
The reactions were carried out in polystyrene microtitre plates. The MAO enzymes (final concentration 2 U/ml) were mixed with either p-tyramine (Sigma, final concentration 0.5 mM) or benzylamine (Sigma, final concentration 0.5 mM) as appropriate and the chromogenic solution (containing vanillic acid (Fluka), 4-aminoantipyrine (Fluka) and horse radish peroxidase (Sigma), final concentrations 0.25 mM, 0.125 mM and 1 U/ml respectively) in 0.2 M potassium phosphate buffer, pH 7.6. The reactions were followed in a microtitre plate absorbance reader e.g. Spectramax M5 (Molecular Devices Corporation). Absorbance readings at 495 nm were taken every 15 seconds for 40 minutes and the initial reaction velocities calculated by linear regression using SOFTmaxPro (Molecular Devices Corporation).
The effect of tricyclic diterpenes and their derivatives according to formula I on the monoamine oxidase enzymes was determined by their inclusion in the assay at a range of concentrations between 0.03 and 100 μM for 10 minutes prior to and during the incubation with substrate. To determine the effect of the compounds on the HRP catalyzed portion of the reaction, the MAO enzyme was replaced by H2O2 (Molecular Probes, final concentration 0.2 mM). The reactions containing MAO-A and MAO-B were both inhibited by tricyclic diterpenes and their derivatives according to formula I in a dose-dependent manner, whilst the control reaction, was unaffected. The measured IC50 values for inhibition of monoamine oxidase activity by carnosic acid, carnosic acid-12-methyl ether and 20-deoxo-carnosol are shown in Table 3.

mouse = experiment: Light dark box test; format: in vivo; conditions: for NUMBER OF CROSSINGS % change from control: mouse
Excerpt: The method, which detects anxiolytic activity, follows that described by Crawley, 1981 Pharmacol. Biochem. Behav., 15:695-699. Anxiolytics increase the time spent in the light compartment.
Animals were placed into the light compartment of a 2-compartment box with one half light and open (25×27×27 cm) and the other half dark and closed (20×27×27 cm). The time spent in each compartment as well as the number of times the animal crosses from one side to the other is scored during a 3-minute test. 15 mice were studied per group. The test was performed blind.
Carnosic acid was evaluated at 3 doses (100, 200, 400 mg/kg BW), administered by oral gavage (p.o.) 24, 5 and 1 hour before the test, and compared with a vehicle control group (corn oil). Carnosic acid was dissolved in corn oil (“vehicle”). Clobazam (32 mg/kg p.o.), administered 1 hour before the test, was used as reference substance. Mice in this group received additional administrations of vehicle at 24 and 5 hours before the test in order to maintain experimental blinding.

T1 sequence (Q01959 whole entry): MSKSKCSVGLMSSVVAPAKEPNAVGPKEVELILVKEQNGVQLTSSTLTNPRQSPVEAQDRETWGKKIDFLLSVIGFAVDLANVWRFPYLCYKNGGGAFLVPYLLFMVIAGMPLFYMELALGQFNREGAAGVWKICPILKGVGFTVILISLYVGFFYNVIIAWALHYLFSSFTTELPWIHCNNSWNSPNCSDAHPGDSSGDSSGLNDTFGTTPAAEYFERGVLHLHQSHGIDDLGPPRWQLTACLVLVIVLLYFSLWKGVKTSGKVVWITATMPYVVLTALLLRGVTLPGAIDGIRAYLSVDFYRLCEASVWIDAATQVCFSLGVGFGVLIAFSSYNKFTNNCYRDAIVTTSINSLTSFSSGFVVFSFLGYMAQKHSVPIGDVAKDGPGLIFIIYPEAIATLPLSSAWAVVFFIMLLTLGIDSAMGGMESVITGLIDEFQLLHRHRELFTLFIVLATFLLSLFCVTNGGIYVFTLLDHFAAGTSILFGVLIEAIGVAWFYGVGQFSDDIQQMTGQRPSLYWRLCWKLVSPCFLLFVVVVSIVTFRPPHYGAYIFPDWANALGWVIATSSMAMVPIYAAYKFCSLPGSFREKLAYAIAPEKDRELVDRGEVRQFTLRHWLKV

## CC(C)c1cc2c(c(O)c1O)[C@@]1(C(=O)O)CCCC(C)(C)[C@@H]1CC2 [Carnosic acid, carnosic acid]
[1]
  IC50: 15 µM
[2]
  IC50: 4.4 ± 0.3 µM
mouse; 100 mg/kg p.o. −24, −5, −1 h
  NUMBER OF CROSSINGS % change from control: +17%
mouse; 200 mg/kg p.o., −24, −5, −1 h
  NUMBER OF CROSSINGS % change from control: −21%
mouse; 400 mg/kg p.o. −24, −5, −1 h
  NUMBER OF CROSSINGS % change from control: +23%
mouse; mouse, 100, 200 and 400 mg/kg p.o.
  number of crossings (in words): did not affect
